Measurements reported in PMC8400968, “Design, Synthesis, Biological Evaluation, and Computational Studies of Novel Tri-Aryl Imidazole-Benzene Sulfonamide Hybrids as Promising Selective Carbonic Anhydrase IX and XII Inhibitors” (Molecules, 2021).
Several values for one entry are separate records, joined by “and”; a condition that tells them apart may be missing. Equal values may be shown once. Read-outs that look alike come from different tables or passages of the source.

Tests used:
hCA I = biological target: T1, hCA I (Homo sapiens, UniProt P00915); experiment: stopped-flow CO2 hydrase assay, hCA I; format: biochemical
T1 construct: made in house
Method: (§1) Newly synthesized hybrids 5a–n were tested for their inhibitory activity against four physiologically and pharmacologically CA isoforms, namely cytosolic hCA I and II, and tumor-associated isoforms hCA IX and XII, using a CO2 hydrase stop-flow assay. Acetazolamide (AAZ), clinically used sulphonamide, was used as the standard drug. […] The ability of imidazoles 5a–n toward inhibition of hCA I, II (cytosolic) as well as hCA IX and XII (transmembrane, tumor-associated isoforms) using stopped-flow CO2 hydrase assay was evaluated. See Appendix A.
(§2) The enzymes are recombinant proteins prepared in our lab. […] The uncatalyzed rates were determined in the same manner and subtracted from the total observed rates. Stock solutions of inhibitor (0.1 mM) were prepared in distilled-deionized water and dilutions up to 0.01 nM were done thereafter with the assay buffer. Inhibitor and enzyme solutions were preincubated together for 15 min at room temperature prior to assay, in order to allow for the formation of the E-I complex. The inhibition constants were obtained by non-linear least-squares methods using PRISM 3 and the Cheng-Prusoff equation, and represent the mean from at least three different determinations.

hCA II = biological target: T2, hCA II (Homo sapiens, UniProt P00918); experiment: stopped-flow CO2 hydrase assay, hCA II; format: biochemical
T2 construct: made in house
Method: as §1, §2

hCA IX = biological target: T3, hCA IX (Homo sapiens, UniProt Q16790); experiment: stopped-flow CO2 hydrase assay, hCA IX; format: biochemical; conditions: for IC50: quoted in docking discussion, read-out: IC50 CA-IX (in vitro inhibitory activity quoted in docking study); for Selectivity Ratio hCA XII/ hCA IX: selectivity for hCA IX over hCA XII; for Ki: stopped-flow CO2 hydrase assay
T3 construct: made in house
Method: as §1, §2

hCA XII = biological target: T4, hCA XII (Homo sapiens, UniProt O43570); experiment: stopped-flow CO2 hydrase assay, hCA XII; format: biochemical
T4 construct: made in house
Method: Newly synthesized hybrids 5a–n were tested for their inhibitory activity against four physiologically and pharmacologically CA isoforms, namely cytosolic hCA I and II, and tumor-associated isoforms hCA IX and XII, using a CO2 hydrase stop-flow assay. Acetazolamide (AAZ), clinically used sulphonamide, was used as the standard drug. […]. The ortho substitution in the aryl moiety appears to correlate with higher inhibitory effects against both hCA IX and XII. […] […]. The ability of imidazoles 5a–n toward inhibition of hCA I, II (cytosolic) as well as hCA IX and XII (transmembrane, tumor-associated isoforms) using stopped-flow CO2 hydrase assay was evaluated. See Appendix A.
The carbonic anhydrase catalyzed CO2 hydration actions for all new compounds herein reported have were assayed utilizing an instrument of Applied Photophysics stopped-flow. The enzymes are recombinant proteins prepared in our lab. […]. The uncatalyzed rates were determined in the same manner and subtracted from the total observed rates. Stock solutions of inhibitor (0.1 mM) were prepared in distilled-deionized water and dilutions up to 0.01 nM were done thereafter with the assay buffer. Inhibitor and enzyme solutions were preincubated together for 15 min at room temperature prior to assay, in order to allow for the formation of the E-I complex. The inhibition constants were obtained by non-linear least-squares methods using PRISM 3 and the Cheng-Prusoff equation, and represent the mean from at least three different determinations.

[1] = Cell viability assay (MTT); format: cell-based; conditions: human, MCF-10A mammary gland epithelial cells, MCF-10A cells, incubated 4 days
Method: Cell viability assay was carried out using human mammary gland epithelial cell line (MCF-10A). MCF-10A cells were incubated with compounds 5b, 5d, 5e, 5g, 5j and 5n for 4 days and MTT assay was used to determine the viability of cells. See Appendix A.
MTT assay was carried out to study the effect of compounds on mammary epithelial cells (MCF-10A). The medium in which cells were propagated contained Dulbecco’s modified Eagle’s medium (DMEM)/Ham’s F-12 medium (1:1) supplemented with epidermal growth factor (20 ng/mL), hydrocortisone (500 ng/mL), insulin (10 μg/mL), 2 mM glutamine and 10% fetal calf serum. After every 2–3 days, the cells were passaged using trypsin ethylenediamine tetra acetic acid (EDTA). The cells were seeded at a density of 10^4 cells mL^−1 in flat-bottomed culture plates containing 96 wells each. After 24 h, medium was removed from the plates and the compounds in (in 0.1% DMSO) were added (in 200 μL medium to yield a final concentration of 0.1% v/v) to the wells of plates. A single compound was designated with four wells followed by incubation of plates for 96 h at 37 °C. After incubation, medium was removed completely from the plates followed by addition of MTT (0.4 mg/mL in medium) to each well and subsequent incubation of plates for 3 h. MTT (along with the medium) was removed and DMSO (150 μL) was added to each well of the culture plates, followed by vortexing and subsequent measurement of absorbance (at 540 nm) using microplate reader. The data are shown as percentage inhibition of proliferation in comparison with controls containing 0.1% DMSO.

[2] = tested on: epithelial cancer cell line (A-549); experiment: Antiproliferative activity, MTT assay, A-549; format: cell-based; conditions: Homo sapiens, A549; A-549, MTT; read-out: Antiproliferative Activity IC50 ± SEM A-549
Method: (§3) The antiproliferative activity of 5b, 5d, 5e, 5g, 5j and 5n against four human cancer cell lines including pancreatic cancer cell line (Panc-1), breast cancer cell line (MCF-7), colon cancer cell line (HT-29) and epithelial cancer cell line (A-549) using MTT assay and doxorubicin was applied as the reference compound [22, 23]. Graph Pad Prism software (Graph Pad Software, San Diego, CA, USA) was used to calculate the median inhibition concentration (IC50) and results are recorded in Table 2.
(§4) The antiproliferative activity of 5b, 5d, 5e, 5g, 5j and 5n against four human cancer cell lines including pancreatic cancer cell line (Panc-1), breast cancer cell line (MCF-7), colon cancer cell line (HT-29) and epithelial cancer cell line (A-549) using MTT assay and doxorubicin was applied as the reference compound [22, 23]. See Appendix A.
(§5) To explore the antiproliferative potential of compounds MTT assay was performed according to previously reported procedure using different cell lines To explore the antiproliferative potential of compounds propidium iodide fluorescence assay was performed using different cell lines. To calculate the total nuclear DNA, a fluorescent dye (propidium iodide, PI) is used which can attach to the DNA, thus offering a quick and precise technique. PI cannot pass through the cell membrane and its signal intensity can be considered as directly proportional to quantity of cellular DNA. Cells whose cell membranes are damaged or have changed permeability are counted as dead ones. The assay was performed by seeding the cells of different cell lines at a density of 3000–7500 cells/well (in 200 µL medium) in culture plates followed by incubation for 24 h at 37 °C in humidified 5% CO2/95% air atmospheric conditions. The medium was removed; the compounds were added to the plates at 10 µM concentrations (in 0.1% DMSO) in triplicates, followed by incubation for 48 h. DMSO (0.1%) was used as control. After incubation, medium was removed followed by the addition of PI (25 µL, 50µg/mL in water/medium) to each well of the plates. At −80 °C, the plates were allowed to freeze for 24 h, followed by thawing at 25 °C. A fluorometer (Polar-Star BMG Tech, Offenburg, Germany) was used to record the readings at excitation and emission wavelengths of 530 and 620 nm for each well. The percentage cytotoxicity of compounds was calculated using the following formula: %Cytotoxicity=(Ac−Atc)/Ac×100 where Atc = Absorbance of treated cells and Ac = Absorbance of control. Erlotinib was used as positive control in the assay.

[3] = tested on: breast cancer cell line (MCF-7); experiment: Antiproliferative activity, MTT assay, MCF-7; format: cell-based; conditions: Homo sapiens, MCF7; MCF-7, MTT; read-out: Antiproliferative Activity IC50 ± SEM MCF-7
Method: as §3, §4, §5

[4] = tested on: pancreatic cancer cell line (Panc-1); experiment: Antiproliferative activity, MTT assay, Panc-1; format: cell-based; conditions: Homo sapiens; Panc-1, MTT; read-out: Antiproliferative Activity IC50 ± SEM Panc-1
Method: as §3, §4, §5

[5] = tested on: colon cancer cell line (HT-29); experiment: Antiproliferative activity, MTT assay, HT-29; format: cell-based; conditions: Homo sapiens; HT-29, MTT; read-out: Antiproliferative Activity IC50 ± SEM HT-29
Method: as §3, §4, §5

[6] = tested on: four human cancer cell lines (Panc-1, MCF-7, HT-29, A-549); experiment: Antiproliferative activity, MTT assay, average of the four cell lines; format: cell-based; conditions: for IC50: average of A-549, MCF-7, Panc-1, HT-29
Method: as §3, §4, §5

T1 sequence (P00915 whole entry): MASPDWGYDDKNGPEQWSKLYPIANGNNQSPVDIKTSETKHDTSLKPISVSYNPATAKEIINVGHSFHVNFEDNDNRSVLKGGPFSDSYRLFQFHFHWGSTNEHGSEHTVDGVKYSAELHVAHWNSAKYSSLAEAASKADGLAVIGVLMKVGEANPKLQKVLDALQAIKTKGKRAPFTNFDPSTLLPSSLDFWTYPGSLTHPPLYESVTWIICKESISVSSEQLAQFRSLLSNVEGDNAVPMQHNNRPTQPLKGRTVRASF
T4 sequence (O43570 25-354): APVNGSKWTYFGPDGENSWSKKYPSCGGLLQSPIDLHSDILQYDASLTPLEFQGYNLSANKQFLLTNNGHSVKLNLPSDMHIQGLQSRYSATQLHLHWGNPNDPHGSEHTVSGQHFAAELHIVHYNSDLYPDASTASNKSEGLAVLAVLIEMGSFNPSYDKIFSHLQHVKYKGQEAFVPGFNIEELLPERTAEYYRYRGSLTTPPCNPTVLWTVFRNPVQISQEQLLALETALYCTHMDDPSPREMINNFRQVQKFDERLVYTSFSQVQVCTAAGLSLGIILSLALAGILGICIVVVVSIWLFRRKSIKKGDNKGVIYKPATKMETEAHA

Ki (hCA I)	Ki (hCA II)	IC50 (hCA IX)	Selectivity Ratio hCA XII/ hCA IX (hCA IX)	Ki (hCA IX)	Ki (hCA XII)	IC50 [2]	IC50 [3]	IC50 [4]	IC50 [5]	IC50 [6]	GI50 ([6]; mean of four cell lines, read-out: mean GI50 against the four cell lines)	melting point	Ki (hCA I; stopped-flow CO2 hydrase assay, read-out: Ki hCA I)	GI50 ([6]; four cancer cell lines, read-out: GI50)	Structure (SMILES)	viability at 96 h [1]
> 100 µM	> 100 µM	0.72 µM	7.00	0.72 µM and 0.7 µM	4.9 µM	3.1 ± 0.6 µM	3.9 ± 0.4 µM	3.8 ± 0.3 µM	3.1 ± 0.4 µM	3.5 µM	3.5 µM	214 to 216 °C			NS(=O)(=O)c1ccc(-n2c(-c3c(Cl)cccc3Cl)nc(-c3ccccc3)c2-c2ccccc2)cc1 [Compound 5d, 4-(2-(2,6-Dichlorophenyl)-4,5-diphenyl-1H-imidazol-1-yl)benzene sulfonamide]	87%
	> 100 µM	0.32 µM	12.00	0.32 µM and 0.3 µM	3.7 µM	2.4 ± 0.5 µM	2.1 ± 0.2 µM	2.2 ± 0.4 µM	2.4 ± 0.4 µM	2.3 µM			> 100 µM	2.3 µM	COc1ccccc1-c1nc(-c2ccccc2)c(-c2ccccc2)n1-c1ccc(S(N)(=O)=O)cc1 [Compound 5g, 4-(2-(2-Methoxyphenyl)-4,5-diphenyl-1H-imidazol-1-yl)benzene sulfonamide]	90%
> 100 µM	> 100 µM		5.60	1.1 µM	6.2 µM	4.6 ± 0.6 µM	3.6 ± 0.2 µM	4.6 ± 0.9 µM	4.8 ± 0.4 µM	4.4 µM		280 to 282 °C			NS(=O)(=O)c1ccc(-n2c(-c3ccccc3[N+](=O)[O-])nc(-c3ccccc3)c2-c2ccccc2)cc1 [Compound 5j, 4-(2-(2-Nitrophenyl)-4,5-diphenyl-1H-imidazol-1-yl)benzene sulfonamide]	88%
> 100 µM	> 100 µM		5.00	1.3 µM	6.4 µM	4.7 ± 0.6 µM	4.6 ± 0.6 µM	4.8 ± 0.3 µM	4.8 ± 0.2 µM	4.7 µM		290 to 292 °C			NS(=O)(=O)c1ccc(-n2c(-c3cccs3)nc(-c3ccccc3)c2-c2ccccc2)cc1 [Compound 5n, 4-(4,5-Diphenyl-2-(thiophen-2-yl)-1H-imidazol-1-yl)benzene sulfonamide]	90%
